Experimental data published in PubChem BioAssay AID1963966 (Molecular Pharmacology Branch, DTP, NCI, 2024).

System: 935938-334-R-J1-PDC spheroids with HUVEC/MSC, viability
Assay: Anticancer human tumor 935938-334-R-J1-PDC patient-derived small intestine adenocarcinoma cell line growth inhibition [PI3K]
Conditions: for IC50: curve of first compound; for viability, T/C: stronger effect = lower value; active means viability on the fitted dose curve at most 10% of control; inactive means the rest
Method in brief: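 Tumor cells grown as multi-cell spheroids with HUVEC endothelial cells and MSC fibroblast-like stroma were treated with targeted agents combined with inavolisib, alpelisib, duvelisib or copanlisib. Doses fell in half-log steps from near clinical Cmax, else from 10 microM. Viability was measured.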

[1] = second compound 0.00316 µM, first compound 0.000316 µM
[2] = second compound 0.00316 µM, first compound 0.001 µM
[3] = second compound 0.00316 µM, first compound 0.00316 µM
[4] = second compound 0.00316 µM, first compound 0.01 µM
[5] = second compound 0.00316 µM, first compound 0.0316 µM
[6] = second compound 0.00316 µM, first compound 0.1 µM
[7] = second compound 0.01 µM, first compound 0.000316 µM
[8] = second compound 0.01 µM, first compound 0.001 µM
[9] = second compound 0.01 µM, first compound 0.00316 µM
[10] = second compound 0.01 µM, first compound 0.01 µM
[11] = second compound 0.01 µM, first compound 0.0316 µM
[12] = second compound 0.01 µM, first compound 0.1 µM
[13] = second compound 0.0316 µM, first compound 0.000316 µM
[14] = second compound 0.0316 µM, first compound 0.001 µM
[15] = second compound 0.0316 µM, first compound 0.00316 µM
[16] = second compound 0.0316 µM, first compound 0.01 µM
[17] = second compound 0.0316 µM, first compound 0.0316 µM
[18] = second compound 0.0316 µM, first compound 0.1 µM
[19] = second compound 0.1 µM, first compound 0.000316 µM
[20] = second compound 0.1 µM, first compound 0.001 µM
[21] = second compound 0.1 µM, first compound 0.00316 µM
[22] = second compound 0.1 µM, first compound 0.01 µM
[23] = second compound 0.1 µM, first compound 0.0316 µM
[24] = second compound 0.1 µM, first compound 0.1 µM
[25] = second compound 0.316 µM, first compound 0.000316 µM
[26] = second compound 0.316 µM, first compound 0.001 µM
[27] = second compound 0.316 µM, first compound 0.00316 µM
[28] = second compound 0.316 µM, first compound 0.01 µM
[29] = second compound 0.316 µM, first compound 0.0316 µM
[30] = second compound 0.316 µM, first compound 0.1 µM
[31] = second compound 1 µM, first compound 0.000316 µM
[32] = second compound 1 µM, first compound 0.001 µM
[33] = second compound 1 µM, first compound 0.00316 µM
[34] = second compound 1 µM, first compound 0.01 µM
[35] = second compound 1 µM, first compound 0.0316 µM
[36] = second compound 1 µM, first compound 0.1 µM
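Further: compound exposure lasted seven days before viability was read.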
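Wherever viability, T/C is given: percent of vehicle DMSO treated spheroid viability so 100% = untreated.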

CC(=O)c1c(C)c2cnc(Nc3ccc(N4CCNCC4)cn3)nc2n(C2CCCC2)c1=O + CC(Nc1ccc2c(c1)OCCn1cc(N3C(=O)OCC3C(F)F)nc1-2)C(N)=O
0.0617 µM: IC50 (second compound 0.01 µM)
inactive: viability, T/C [1] 82.7% | viability, T/C [2] 66% | viability, T/C [3] 97.2% | viability, T/C [4] 90.4% | viability, T/C [5] 95.5% | viability, T/C [6] 24.6% | viability, T/C [7] 81.3% | viability, T/C [8] 70.7% | viability, T/C [9] 92.6% | viability, T/C [10] 86.7% | viability, T/C [11] 82.7% | viability, T/C [12] 26.5% | viability, T/C [13] 67.7% | viability, T/C [14] 65.7% | viability, T/C [15] 112% | viability, T/C [16] 81.4% | viability, T/C [17] 98.2% | viability, T/C [18] 20.3% | viability, T/C [19] 76.2% | viability, T/C [20] 81.7% | viability, T/C [21] 72.4% | viability, T/C [22] 91.3% | viability, T/C [23] 66.4% | viability, T/C [24] 19.3% | viability, T/C [25] 63.5% | viability, T/C [26] 65.1% | viability, T/C [27] 74.8% | viability, T/C [28] 77.2% | viability, T/C [29] 70.7% | viability, T/C [30] 19.5% | viability, T/C [31] 47.9% | viability, T/C [32] 57.5% | viability, T/C [33] 82.2% | viability, T/C [34] 67.3% | viability, T/C [35] 47.3% | viability, T/C [36] 20.6%
0.0472 µM: IC50 (second compound 0.1 µM)
0.0499 µM: IC50 (second compound 0.316 µM)
0.0623 µM: IC50 (second compound 0.00316 µM)
0.0262 µM: IC50 (second compound 1 µM)
0.059 µM: IC50 (second compound 0.0316 µM)

CC(C)n1nc(-c2ccc3oc(N)nc3c2)c2c(N)ncnc21 + CC(Nc1ccc2c(c1)OCCn1cc(N3C(=O)OCC3C(F)F)nc1-2)C(N)=O
inactive: viability, T/C [1] 102% | viability, T/C [2] 113% | viability, T/C [3] 80.9% | viability, T/C [4] 87.4% | viability, T/C [5] 76.6% | viability, T/C [6] 43.5% | viability, T/C [7] 112% | viability, T/C [8] 107% | viability, T/C [9] 109% | viability, T/C [10] 62.2% | viability, T/C [11] 76.9% | viability, T/C [12] 51.9% | viability, T/C [13] 100% | viability, T/C [14] 99.1% | viability, T/C [15] 94.6% | viability, T/C [16] 84.4% | viability, T/C [17] 83.8% | viability, T/C [18] 31.6% | viability, T/C [19] 102% | viability, T/C [20] 96.3% | viability, T/C [21] 101% | viability, T/C [22] 86.6% | viability, T/C [23] 57.3% | viability, T/C [24] 32.6% | viability, T/C [25] 78.2% | viability, T/C [26] 91% | viability, T/C [27] 61.5% | viability, T/C [28] 61% | viability, T/C [29] 61.1% | viability, T/C [30] 32.3% | viability, T/C [31] 50.6% | viability, T/C [32] 63.5% | viability, T/C [33] 52% | viability, T/C [34] 49.7% | viability, T/C [35] 35.2% | viability, T/C [36] 31.3%
0.0822 µM: IC50 (second compound 0.00316 µM)
0.0441 µM: IC50 (second compound 0.1 µM)
0.0646 µM: IC50 (second compound 0.0316 µM)
> 0.1 µM: IC50 (second compound 0.01 µM)
0.0374 µM: IC50 (second compound 0.316 µM)
0.00833 µM: IC50 (second compound 1 µM)
